Results from US4221909A, “P-Acetamidobenzoic acid salts of 9-(hydroxyalkyl) purines” (Sloan-Kettering Institute for Cancer Research, priority 1978, dated 1980).
Values after ≈ are worked out from the molar mass of the structure shown.

Experiments:
herpes hominis type 2 = assay: Anti-Herpes Activity (Plaque Assay); type: cell-based; conditions: concentrations less than 100 μg/ml
Text: The infection of tissue culture cells by Herpes virus causes cell lysis. After a period of time these lysed cells are visualized as a tiny clear area (plaque) on a layer of cells. The incorporation of a test substance into the media will reduce the number of plaques if it is capable of preventing virus replication. The method is as follows:
There was employed herpes hominis type 2 purchased from American Type Culture Collection (ATCC), Bethesda, Md., ATCC #VR 540, Lot 3D. The lyophilized viral suspension was reconstituted with 1 ml sterile distilled H2 O. The virus was passed twice through HeLa-cell monolayers. The tissue-culture supernates were pooled, dispensed in 1-ml aliquots, and stored at -70° C.
Vero cells in log-growth phase were subcultured at a concentration of 1×10^5 cells/ml in 50-ml Falcon flasks in Eagle's Minimum Essential Medium (MEM), supplemented with 10% fetal calf serum (FCS) and antibiotics. Media were changed the day following planting. […]
Agarose was prepared at a concentration of 6% w/v in 50 ml PBS. […] In addition, a 1:10 dilution of pooled human anti-herpes sera was readied. […]
Plaques were counted either directly by transmitted fluorescent light and macroviewing, or by the use of light microscopy for microplaques. Microplaques were counted by averaging three fields per experimental group under 150× magnification.

Phase solubility studies = type: physicochemical; conditions: constant pH
Text: This is indicative of an interaction occuring in solution to yield a complex.

spleen cells = assay: In vitro treatment of Con A stimulated spleen cells; type: cell-based, mice (Balb/C); conditions: compound 1 μg/ml; suboptimal Con A 5 μg/ml
Text: The purpose of this study was to determine the effects of in vivo treatment of mice with the compounds NPT 15392 and 15410 on the subsequent activity of spleen cells isolated from these animals and evaluated in vitro for their proliferative response to the mitogen, Concanavalin A (Con A).
The following day, each group was sacrificed and the spleens removed and pooled. The spleens were minced and the cells washed in RPMI-1640 medium (Grand Island Biologicals) supplemental with 2 mm glutamine and antibiotics. The cell concentration of each preparation was determined by a Coulter counter and adjusted to 5×10^6 cells/ml with RPMI medium.
Microtiter assays were carried out in 0.2 ml incubations, containing 5×10^5 cells and Con A or Con A and compounds at the indicated concentrations. All assays were performed with 6 replicates and compared with a blank assay containing only cells. The assay plates were incubated at 37° in 5% CO2 for 4 days. During the final 18-20 hours of incubation, […] of ^3 HTdR (10 μCi/ml, 6 Ci /m mole) were added to each culture. The cultures were harvested with a multiple automatic sample harvester (MASH) unit and the incorporated ^3 HTdR determined with a Beckman LS 8000 liquid scintillation counter, as a measure of cell proliferation. The results are tabulated as the ratio of the activity in the Con A or Con A and compound treated cultures to the blank cultures. […]

L-1210 cells = assay: Anti-Leukemic Activity (Inhibition of L-1210 Growth); type: cell-based, mouse
Description: Leukemic cells isolated from mice bearing the L-1210 tumor are cultured in vitro and their growth can be measured by counting the number of cells in the culture over a period of time. The incorporation of a test substance into the media will prevent the growth of the leukemic cells, an indication of an effective anti-leukemic agent.
Check to see that there is adequate cell growth in the stock cultures. Use cells 48-72 hours after transfers are done.
Weigh out the drugs at 50 times the desired final concentration and made serial dilutions.
Make up the final medium using 500 mls McCoy's 5A medium, 15% fetal calf serum, 5 mls penicillin-streptomycin solution, and 5 mls antibiotic-antimycotic solution and let it stand at room temperature.
Using sterile technique, add 0.1 ml of the drug dilutions to each tube.
Add an appropriate quantity of cells to the prepared medium. After mixing, remove a 0.5 ml sample, place it in a vial containing […] of saline, and count it on the Coulter Counter. Multiply the count by 40 to compensate for the 40 fold dilution (0.5 ml into […] and record the inoculum.
Add 5 mls of cell suspension to each tube. Swirl the bottle every 4 tubes to insure a more uniform distribution of cells.
Tighten the caps and place in the CO2 incubator at 36°-38° for 96 hours. […]

| Structure (SMILES) | reduction of plaque formation caused by Herpes Simplex virus (herpes hominis type 2) [%] | solubility at increasing concentrations of DIP.PAcBA (Phase solubility studies) | augmentation of Con A stimulation (spleen cells) | IC50 (L-1210 cells; Mus musculus, L1210, 96 h, 96 hours, text: μg/ml, read-out: I50 (concentration of drug inhibiting growth of L-1210)) [µg/mL] | DIP.PAcBA potentiation of Anti-Leukemia activity (L-1210 cells; DIP.PAcBA salt vs parent compound) |
| --- | --- | --- | --- | --- | --- |
| CCCCCC[C@H]([C@H](C)O)n1cnc2c(=O)[nH]cnc21 (relative stereo) [NPT 15392, Erythro-9-(2-Hydroxy-3-Nonyl)Hypoxanthine] | > 90 | increased solubility | marked ability to augment the Con A stimulation | – | – |
| CCCCCCC(CO)n1cnc2c(=O)[nH]cnc21 (stereo not drawn) [NPT 15417] | – | – | – | 47 (≈ 178 µM) | – |
| CCCCCC[C@H]([C@H](C)O)n1cnc2c(=O)[nH]cnc21 (relative stereo) [NPT 15410] | – | – | marked ability to augment the Con A stimulation | – | Yes |
